Consider 18 compounds from patent publication US8030500B2, “Substituted isoindoles for the treatment and/or prevention of Aβ- related pathologies” (AstraZeneca AB, priority 2008, dated 2011).

Where a name gives a salt, the structure may show the parent alone.

This experiment has as its target T1, human β-Secretase (Homo sapiens, UniProt P56817).
T1 construct: soluble part of the human β-Secretase (AA 1-AA 460); Fc domain of IgG1; made in house
The experiment is described as follows: TR-FRET assay (β-secretase enzyme, sBACE-Fc). In kind it is biochemical. To be noted: soluble human β-secretase (sBACE-Fc), substrate (Europium)[…](Qsy7) 100 nM, pH4.5; read-out: IC50 in TR-FRET assay. As to the method:
The β-secretase enzyme used in the TR-FRET is prepared as follows:
The cDNA for the soluble part of the human β-Secretase (AA 1-AA 460) was cloned using the ASP2-Fc10-1-IRES-GFP-neoK mammalian expression vector. The gene was fused to the Fc domain of IgG1 (affinity tag) and stably cloned into HEK 293 cells.
The robotic systems Biomek FX and Velocity 11 were used for all liquid handling and the enzyme and substrate solutions were kept on ice until they were placed in the robotic system. Enzyme (9 μl) was added to the plate then 1 μl of compound in dimethylsulphoxide was added, mixed and pre-incubated for 10 minutes. Substrate (10 μl) was then added, mixed and the reaction proceeded for 15 minutes at room temperature. The reaction was stopped with the addition of Stop solution (7 μl, NaAcetate, pH 9). […] The dimethylsulphoxide control, instead of test compound, defined the 100% activity level and 0% activity was defined by wells lacking enzyme (replaced with reaction buffer).
A general note: TR-FRET usually uses a lanthanide donor and a delayed reading to cut background.

T1 sequence (P56817 22-460): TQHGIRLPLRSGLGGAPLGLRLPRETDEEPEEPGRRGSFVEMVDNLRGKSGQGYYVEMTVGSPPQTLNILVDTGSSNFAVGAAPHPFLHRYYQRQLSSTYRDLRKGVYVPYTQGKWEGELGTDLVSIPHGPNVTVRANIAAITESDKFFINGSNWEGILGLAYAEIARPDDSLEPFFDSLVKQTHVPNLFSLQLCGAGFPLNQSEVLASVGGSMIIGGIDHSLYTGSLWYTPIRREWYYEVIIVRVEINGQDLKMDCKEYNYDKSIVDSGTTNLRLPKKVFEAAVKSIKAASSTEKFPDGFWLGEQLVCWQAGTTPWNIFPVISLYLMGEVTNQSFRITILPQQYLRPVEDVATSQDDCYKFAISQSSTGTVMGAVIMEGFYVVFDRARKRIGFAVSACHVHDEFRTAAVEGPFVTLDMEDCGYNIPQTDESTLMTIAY

By IC50 is commonly meant the concentration that gives 50% inhibition. Turning to `NC1=NC(c2cccc(-c3cnccn3)c2)(c2ccnc(C3CC3)c2)c2cccc(F)c21` (stereo not drawn) [Example 37, 1-(2-Cyclopropylpyridin-4-yl)-4-fluoro-1-(3-(pyrazin-2-yl)phenyl)-1H-isoindol-3-amine trifluoroacetate], the IC50 is 87 nM.

In the case of `COc1ccnc(-c2cccc(C3(c4ccnc(OC)c4)N=C(N)c4c(F)cccc43)c2)c1` (stereo not drawn) [Example 38, 4-Fluoro-1-(3-(4-methoxypyridin-2-yl)phenyl)-1-(2-methoxypyridin-4-yl)-1H-isoindol-3-amine], the IC50 turned out to be 430 nM.

For the compound `COc1cc(C2(c3cccc(-c4cc(C#N)ccn4)c3)N=C(N)c3c(F)cccc32)ccn1` (stereo not drawn) [Example 39, 2-(3-(3-Amino-4-fluoro-1-(2-methoxypyridin-4-yl)-1H-isoindol-1-yl)phenyl)isonicotinonitrile], the half-maximal inhibitory concentration (IC50) came out at 1100 nM.

Turning to `NC1=NC(c2ccnc(-c3cncnc3)c2)(c2ccnc(C(F)F)c2)c2cccc(F)c21` (stereo not drawn) [Example 42, 1-(2-(Difluoromethyl)pyridin-4-yl)-4-fluoro-1-(2-(pyrimidin-5-yl)pyridin-4-yl)-1H-isoindol-3-amine], the concentration for half-maximal inhibition (IC50) amounted to 310 nM.

In the case of `COc1ccc(C2(c3cccc(-c4cncnc4)c3)N=C(N)c3c(F)cccc32)cc1C#N` (stereo not drawn) [Example 43, 5-(3-Amino-4-fluoro-1-(3-(pyrimidin-5-yl)phenyl)-1H-isoindol-1-yl)-2-methoxybenzonitrile], the IC50 came out at 560 nM.

In the case of `COc1c(C)cc(C2(c3cccc(-c4cncnc4)c3)N=C(N)c3c(F)cccc32)nc1C` (stereo not drawn) [Example 44, 4-Fluoro-1-(5-methoxy-4,6-dimethylpyridin-2-yl)-1-(3-(pyrimidin-5-yl)phenyl)-1H-isoindol-3-amine], the IC50 was 79 nM.

Turning to `Cc1cc(C2(c3cccc(-c4cncnc4)c3)N=C(N)c3c(F)cccc32)nc(C)n1` (stereo not drawn) [Example 45, 1-(2,6-Dimethylpyrimidin-4-yl)-4-fluoro-1-(3-(pyrimidin-5-yl)phenyl)-1H-isoindol-3-amine], the half-maximal inhibitory concentration (IC50) turned out to be 270 nM.

On to `COc1cc(C2(c3cccc(-c4cncnc4)c3)N=C(N)c3c(F)cccc32)cc(F)c1F` (stereo not drawn) [Example 46, 1-(3,4-Difluoro-5-methoxyphenyl)-4-fluoro-1-(3-(pyrimidin-5-yl)phenyl)-1H-isoindol-3-amine], for which the IC50 was determined as 690 nM.

As for `COc1c(C)cc(C2(c3cccc(-c4cncnc4)c3)N=C(N)c3c(F)cccc32)cc1CC#N` (stereo not drawn) [Example 47, 2-(5-(3-Amino-4-fluoro-1-(3-(pyrimidin-5-yl)phenyl)-1H-isoindol-1-yl)-2-methoxy-3-methylphenyl) acetonitrile], the IC50 came out at 83 nM.

On to `COc1cc(C2(c3cccc(-c4cncnc4)c3)N=C(N)c3c(F)cccc32)ccc1F` (stereo not drawn) [Example 48, 4-Fluoro-1-(4-fluoro-3-methoxyphenyl)-1-(3-(pyrimidin-5-yl)phenyl)-1H-isoindol-3-amine], for which the concentration for half-maximal inhibition (IC50) worked out at 350 nM.

`COc1ncc(C2(c3cccc(-c4cncnc4)c3)N=C(N)c3c(F)cccc32)cc1C(F)(F)F` (stereo not drawn) [Example 49, 4-Fluoro-1-(6-methoxy-5-(trifluoromethyl)pyridin-3-yl)-1-(3-(pyrimidin-5-yl)phenyl)-1 H-isoindol-3-amine]: the IC50 was found to be 600 nM.

Turning to `NC1=NC(c2ccnc(C(F)(F)F)c2)(c2ccc(O)c(-c3cnccn3)c2)c2cccc(F)c21` (stereo not drawn) [Example 50, 4-(3-Amino-4-fluoro-1-(2-(trifluoromethyl)pyridin-4-yl)-1H-isoindol-1-yl)-2-(pyrazin-2-yl)phenol], the IC50 came out at 420 nM.

As for `COc1ccc(C2(c3ccnc(C(F)(F)F)c3)N=C(N)c3c(F)cccc32)cc1-c1cncnc1` (stereo not drawn) [Example 51, 4-Fluoro-1-(4-methoxy-3-(pyrimidin-5-yl)phenyl)-1-(2-(trifluoromethyl)pyridin-4-yl)-1H-isoindol-3-amine], the IC50 came out at 5600 nM.

In the case of `NC1=NC(c2ccnc(-c3cncnc3)c2)(c2ccnc(C3CC3)c2)c2cccc(F)c21` (stereo not drawn) [Example 52, 1-(2-Cyclopropylpyridin-4-yl)-4-fluoro-1-(2-(pyrimidin-5-yl)pyridin-4-yl)-1H-isoindol-3-amine], the IC50 amounted to 690 nM.

Take `Cc1cc(C2(c3ccnc(-c4cncc(F)c4)c3)N=C(N)c3c(F)cccc32)nc(C)c1OC(F)F` (stereo not drawn) [Example 53, 3-(5-Difluoromethoxy-4,6-dimethyl-pyridin-2-yl)-7-fluoro-3-(5′-fluoro-[2,3′]bipyridinyl-4-yl)-3H-isoindol-1-ylamine]: the IC50 was 910 nM.

For `COc1c(C)cc(C2(c3cccc(-c4cncnc4)c3)N=C(N)c3c(F)cccc32)cc1C#N` (stereo not drawn) [Example 54, 5-(3-Amino-4-fluoro-1-(3-(pyrimidin-5-yl)phenyl)-1H-isoindol-1-yl)-2-methoxy-3-methylbenzonitrile], the 50% inhibitory concentration (IC50) turned out to be 42 nM.

Consider `NC1=NC(c2cccc(-c3cncnc3)c2)(c2ccnc(C(F)(F)F)c2)c2cc(Cl)cc(F)c21` (stereo not drawn) [Example 55, 6-Chloro-4-fluoro-1-(3-(pyrimidin-5-yl)phenyl)-1-(2-(trifluoromethyl)pyridin-4-yl)-1H-isoindol-3-amine], for which the IC50 stood at 150 nM.

Take `Cc1cc(C2(c3cccc(-c4cncnc4)c3)N=C(N)c3c(F)cc(Cl)cc32)ccn1` (stereo not drawn) [Example 56, 6-Chloro-4-fluoro-1-(2-methylpyridin-4-yl)-1-(3-(pyrimidin-5-yl)phenyl)-1H-isoindol-3-amine]: the IC50 came to 230 nM.
